For 12 compounds, T/C results are on record in PubChem BioAssay AID328 (DTP/NCI, 2004).

“And” between values parts separate entries of the source, which are not always exact repeats. Equal entries are not always repeated. Toxic doses and inconclusive results are not listed.

The assay deals with BDF1 mice, P388 leukemia ip, median survival T/C. The assay is described as follows: NCI In Vivo Anticancer Drug Screen. Data for tumor model P388 Leukemia (intraperitoneal) in B6D2F1 (BDF1) mice. The note with it: endpoint: median survival time, higher = longer survival. The gist of the method:
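Vehicle-dosed animals serve as the reference; survival of compound-dosed, tumour-implanted mice is divided by it.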

Where [1] appears, read: dose: 25.0 mg/kg/injection, schedule: Q01DX009 (ip), vehicle: Klucel (hydroxypropylcellulose) (HPC).
Where [2] appears, read: dose: 50.0 mg/kg/injection, schedule: Q01DX009 (ip), vehicle: Klucel (hydroxypropylcellulose) (HPC).
Setting [3] is: dose: 100.0 mg/kg/injection, schedule: Q04DX003 (ip), vehicle: Klucel (hydroxypropylcellulose) (HPC).
The mark [4] stands for this setting: dose: 100.0 mg/kg/injection, schedule: Q04DX003 (ip), vehicle: saline.
Where [5] appears, read: dose: 200.0 mg/kg/injection, schedule: Q04DX003 (ip), vehicle: saline.
Setting [6] is: dose: 100.0 mg/kg/injection, schedule: Q01DX009 (ip), vehicle: saline.
The mark [7] stands for this setting: dose: 400.0 mg/kg/injection, schedule: Q01DX001 (ip), vehicle: saline.

For the compound `CC1C/C(=C\NC(N)=O)C(=O)O1` (centres undefined), the T/C runs as follows: (dose: 100.0 mg/kg/injection, schedule: Q04DX003 (ip), vehicle: water) 103 % of control; (dose: 200.0 mg/kg/injection, schedule: Q04DX003 (ip), vehicle: water) 102 % of control; (dose: 400.0 mg/kg/injection, schedule: Q04DX003 (ip), vehicle: water) 103 % of control.
`OCc1cnc[nH]1`: the T/C reads like this: (dose: 6.25 mg/kg/injection, schedule: Q01DX009 (ip), vehicle: Klucel (hydroxypropylcellulose) (HPC)) 96 % of control; (dose: 12.5 mg/kg/injection, schedule: Q01DX009 (ip), vehicle: Klucel (hydroxypropylcellulose) (HPC)) 91 % of control; under setting [1], 90 % of control; under setting [2], 99 % of control.
As for `CC(C)=CCOc1ccc2ccc(=O)oc2c1`, the T/C reads like this: (dose: 4.0 mg/kg/injection, schedule: Q01DX009 (ip), vehicle: Klucel (hydroxypropylcellulose) (HPC)) 100 % of control; (dose: 8.0 mg/kg/injection, schedule: Q01DX009 (ip), vehicle: Klucel (hydroxypropylcellulose) (HPC)) 98 % of control; (dose: 16.0 mg/kg/injection, schedule: Q01DX009 (ip), vehicle: Klucel (hydroxypropylcellulose) (HPC)) 108 % of control; (dose: 32.0 mg/kg/injection, schedule: Q01DX009 (ip), vehicle: Klucel (hydroxypropylcellulose) (HPC)) 90 % of control.
As to `NC(=S)N=Nc1ccc(O)c2c(O)ccc(O)c12`, the T/C by setting is: (dose: 6.3 mg/kg/injection, schedule: Q01DX009 (ip), vehicle: water) 96 % of control; (dose: 12.5 mg/kg/injection, schedule: Q01DX009 (ip), vehicle: water) 94 % of control; (dose: 25.0 mg/kg/injection, schedule: Q01DX009 (ip), vehicle: water) 92 % of control; (dose: 50.0 mg/kg/injection, schedule: Q01DX009 (ip), vehicle: water) 86 % of control.
`NC(CCSCc1ccc(N(CCCl)CCCl)cc1)C(=O)O` (centres undefined): the T/C by setting is: (dose: 2.0 mg/kg/injection, schedule: Q01DX009 (ip), vehicle: Klucel (hydroxypropylcellulose) (HPC)) 163 % of control; (dose: 3.0 mg/kg/injection, schedule: Q01DX009 (ip), vehicle: Klucel (hydroxypropylcellulose) (HPC)) 186 % of control; (dose: 4.5 mg/kg/injection, schedule: Q01DX009 (ip), vehicle: Klucel (hydroxypropylcellulose) (HPC)) 190 % of control; (dose: 5.0 mg/kg/injection, schedule: Q04DX003 (ip), vehicle: Klucel (hydroxypropylcellulose) (HPC)) 169 % of control; (dose: 7.0 mg/kg/injection, schedule: Q01DX009 (ip), vehicle: Klucel (hydroxypropylcellulose) (HPC)) 183 % of control and 213 % of control; (dose: 8.0 mg/kg/injection, schedule: Q04DX003 (ip), vehicle: Klucel (hydroxypropylcellulose) (HPC)) 184 % of control. The T/C is, setting by setting: (dose: 11.0 mg/kg/injection, schedule: Q01DX009 (ip), vehicle: Klucel (hydroxypropylcellulose) (HPC)) 212 % of control; (dose: 13.0 mg/kg/injection, schedule: Q04DX003 (ip), vehicle: Klucel (hydroxypropylcellulose) (HPC)) 207 % of control; (dose: 14.0 mg/kg/injection, schedule: Q04DX003 (ip), vehicle: alcohol) 230 % of control; (dose: 17.0 mg/kg/injection, schedule: Q01DX009 (ip), vehicle: Klucel (hydroxypropylcellulose) (HPC)) 225 % of control and 272 % of control; (dose: 20.0 mg/kg/injection, schedule: Q04DX003 (ip), vehicle: Klucel (hydroxypropylcellulose) (HPC)) 230 % of control and 204 % of control; (dose: 21.0 mg/kg/injection, schedule: Q04DX003 (ip), vehicle: alcohol) 226 % of control. The T/C under setting [1] was 272 % of control; the T/C (dose: 30.0 mg/kg/injection, schedule: Q04DX003 (ip), vehicle: Klucel (hydroxypropylcellulose) (HPC)) is 272 % of control; the T/C (dose: 33.0 mg/kg/injection, schedule: Q04DX003 (ip), vehicle: saline with Tween-80) is 168 % of control and 213 % of control; the T/C (dose: 37.0 mg/kg/injection, schedule: Q01DX009 (ip), vehicle: Klucel (hydroxypropylcellulose) (HPC)) is 272 % of control; the T/C (dose: 45.0 mg/kg/injection, schedule: Q04DX003 (ip), vehicle: Klucel (hydroxypropylcellulose) (HPC)) was 268 % of control; the T/C under setting [2] is 89 % of control. Besides, the T/C was 227 % of control and 272 % of control (dose: 50.0 mg/kg/injection, schedule: Q04DX003 (ip), vehicle: saline with Tween-80); 230 % of control (dose: 67.0 mg/kg/injection, schedule: Q04DX003 (ip), vehicle: Klucel (hydroxypropylcellulose) (HPC)); 272 % of control and 190 % of control (dose: 75.0 mg/kg/injection, schedule: Q04DX003 (ip), vehicle: saline with Tween-80); 230 % of control and 250 % of control under setting [3]; 123 % of control (dose: 150.0 mg/kg/injection, schedule: Q04DX003 (ip), vehicle: Klucel (hydroxypropylcellulose) (HPC)); 120 % of control (dose: 375.0 micrograms/kg/injection, schedule: Q04DX003 (ip), vehicle: saline with Tween-80).
For the compound `O=C(O)CNCc1ccc(F)cc1`, the T/C runs as follows: (dose: 50.0 mg/kg/injection, schedule: Q04DX003 (ip), vehicle: saline) 111 % of control; under setting [4], 120 % of control; under setting [5], 115 % of control.
Consider `CCN(CC)CC(C)OC(=O)c1ccc(N)cc1` (centres undefined), for which the T/C runs as follows: (dose: 33.0 mg/kg/injection, schedule: Q01DX009 (ip), vehicle: saline) 92 % of control; (dose: 50.0 mg/kg/injection, schedule: Q01DX009 (ip), vehicle: saline) 100 % of control; (dose: 75.0 mg/kg/injection, schedule: Q01DX009 (ip), vehicle: saline) 104 % of control; under setting [6], 100 % of control; under setting [4], 95 % of control; under setting [5], 86 % of control.
Turning to `O=C(Cn1cc(F)c(=O)[nH]c1=O)N1CCC2(CC1)SSC1(CCN(C(=O)Cn3cc(F)c(=O)[nH]c3=O)CC1)S2`, the T/C reads like this: under setting [6], 90 % of control; under setting [4], 104 % of control; (dose: 200.0 mg/kg/injection, schedule: Q01DX009 (ip), vehicle: saline) 95 % of control; under setting [5], 95 % of control; (dose: 400.0 mg/kg/injection, schedule: Q04DX003 (ip), vehicle: saline) 104 % of control.
Consider `O=C(c1ccc([N+](=O)[O-])cc1)C(Br)C(Br)c1ccncc1` (centres undefined), for which the T/C by setting is: (dose: 50.0 mg/kg/injection, schedule: Q01DX001 (ip), vehicle: Klucel (hydroxypropylcellulose) (HPC)) 105 % of control; (dose: 100.0 mg/kg/injection, schedule: Q01DX001 (ip), vehicle: Klucel (hydroxypropylcellulose) (HPC)) 110 % of control; under setting [3], 113 % of control; (dose: 200.0 mg/kg/injection, schedule: Q01DX001 (ip), vehicle: Klucel (hydroxypropylcellulose) (HPC)) 115 % of control; (dose: 200.0 mg/kg/injection, schedule: Q04DX003 (ip), vehicle: Klucel (hydroxypropylcellulose) (HPC)) 113 % of control; (dose: 400.0 mg/kg/injection, schedule: Q04DX003 (ip), vehicle: Klucel (hydroxypropylcellulose) (HPC)) 113 % of control.
`NC(N)=NCCCCCC(=O)O`: the T/C is, setting by setting: under setting [4], 104 % of control; under setting [5], 109 % of control; under setting [7], 87 % of control.
Turning to `O/N=C1\CCCc2ccc(F)cc21`, the T/C was 100 % of control (dose: 25.0 mg/kg/injection, schedule: Q01DX009 (ip), vehicle: saline with Tween-80); 106 % of control and 108 % of control (dose: 50.0 mg/kg/injection, schedule: Q01DX009 (ip), vehicle: saline with Tween-80); 106 % of control (dose: 100.0 mg/kg/injection, schedule: Q01DX009 (ip), vehicle: saline with Tween-80); 109 % of control and 120 % of control (dose: 200.0 mg/kg/injection, schedule: Q01DX009 (ip), vehicle: saline with Tween-80).
Take `CC1(C#N)CC(C#N)Nc2ccccc2N1` (centres undefined): the T/C runs as follows: (dose: 100.0 mg/kg/injection, schedule: Q01DX001 (ip), vehicle: saline) 104 % of control; (dose: 200.0 mg/kg/injection, schedule: Q01DX001 (ip), vehicle: saline) 91 % of control; under setting [7], 100 % of control.
